{"source": "ChEMBL document CHEMBL5465560", "about": "“Selectivity Literature for EUbOPEN Chemogenomic Library” (2024)", "key": {"[1]": {"target": "Ephrin type-A receptor 7 (Homo sapiens) (UniProt Q15375)", "sequence (Q15375 28-998 limits assumed)": "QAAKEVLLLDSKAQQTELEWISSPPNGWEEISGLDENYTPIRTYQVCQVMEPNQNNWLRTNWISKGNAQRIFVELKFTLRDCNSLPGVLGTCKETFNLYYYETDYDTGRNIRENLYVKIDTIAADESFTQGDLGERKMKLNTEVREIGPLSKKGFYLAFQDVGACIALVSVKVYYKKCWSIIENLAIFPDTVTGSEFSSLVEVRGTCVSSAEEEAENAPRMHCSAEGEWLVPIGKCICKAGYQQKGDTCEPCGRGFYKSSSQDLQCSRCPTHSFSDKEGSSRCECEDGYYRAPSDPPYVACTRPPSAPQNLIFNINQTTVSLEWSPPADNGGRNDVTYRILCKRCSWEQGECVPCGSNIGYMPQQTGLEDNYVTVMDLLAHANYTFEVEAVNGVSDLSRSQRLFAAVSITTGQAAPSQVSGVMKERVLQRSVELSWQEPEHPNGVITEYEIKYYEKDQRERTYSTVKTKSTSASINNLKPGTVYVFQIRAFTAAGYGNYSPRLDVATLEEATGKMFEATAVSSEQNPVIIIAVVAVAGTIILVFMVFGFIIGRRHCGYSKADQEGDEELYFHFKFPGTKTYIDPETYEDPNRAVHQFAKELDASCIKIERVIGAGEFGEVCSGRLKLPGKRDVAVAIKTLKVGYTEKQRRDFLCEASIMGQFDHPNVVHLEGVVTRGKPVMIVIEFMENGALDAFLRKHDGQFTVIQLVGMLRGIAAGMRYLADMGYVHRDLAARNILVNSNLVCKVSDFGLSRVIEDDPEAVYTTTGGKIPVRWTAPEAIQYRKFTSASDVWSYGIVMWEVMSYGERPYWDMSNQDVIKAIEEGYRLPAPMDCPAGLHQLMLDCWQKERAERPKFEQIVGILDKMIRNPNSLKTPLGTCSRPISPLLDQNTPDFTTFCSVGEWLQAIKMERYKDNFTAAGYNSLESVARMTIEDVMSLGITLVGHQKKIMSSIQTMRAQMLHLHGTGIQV", "assay": "Selectivity interaction (Upstate Kinase Profiler service (Millipore)) EUB0000056c EPHA7", "conditions": "at 1 µM"}, "[2]": {"target": "Calcium/calmodulin-dependent protein kinase kinase 2 (Homo sapiens) (UniProt Q96RR4)", "sequence (Q96RR4 2-588 limits assumed)": "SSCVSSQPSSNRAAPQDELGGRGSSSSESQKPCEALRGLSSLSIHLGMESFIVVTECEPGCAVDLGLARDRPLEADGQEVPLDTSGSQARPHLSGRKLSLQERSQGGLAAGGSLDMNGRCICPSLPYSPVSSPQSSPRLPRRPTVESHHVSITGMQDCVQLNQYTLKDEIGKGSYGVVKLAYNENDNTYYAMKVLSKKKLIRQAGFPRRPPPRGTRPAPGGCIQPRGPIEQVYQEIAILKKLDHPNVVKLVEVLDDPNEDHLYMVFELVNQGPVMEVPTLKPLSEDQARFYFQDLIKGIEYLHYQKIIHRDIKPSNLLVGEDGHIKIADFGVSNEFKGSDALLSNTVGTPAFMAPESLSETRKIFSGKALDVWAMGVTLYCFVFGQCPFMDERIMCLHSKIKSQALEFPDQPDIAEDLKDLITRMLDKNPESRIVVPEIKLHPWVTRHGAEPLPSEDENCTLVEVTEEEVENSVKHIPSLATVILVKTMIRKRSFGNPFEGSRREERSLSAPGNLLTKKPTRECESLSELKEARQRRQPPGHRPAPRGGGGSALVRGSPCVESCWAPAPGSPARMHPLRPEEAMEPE", "assay": "Selectivity interaction (KinomeScan (DiscoverX)) EUB0001079a CAMKK2", "conditions": "at 1 µM"}, "[3]": {"target": "Muscarinic acetylcholine receptor M3 (Homo sapiens, UniProt P20309)", "sequence (P20309 whole entry)": "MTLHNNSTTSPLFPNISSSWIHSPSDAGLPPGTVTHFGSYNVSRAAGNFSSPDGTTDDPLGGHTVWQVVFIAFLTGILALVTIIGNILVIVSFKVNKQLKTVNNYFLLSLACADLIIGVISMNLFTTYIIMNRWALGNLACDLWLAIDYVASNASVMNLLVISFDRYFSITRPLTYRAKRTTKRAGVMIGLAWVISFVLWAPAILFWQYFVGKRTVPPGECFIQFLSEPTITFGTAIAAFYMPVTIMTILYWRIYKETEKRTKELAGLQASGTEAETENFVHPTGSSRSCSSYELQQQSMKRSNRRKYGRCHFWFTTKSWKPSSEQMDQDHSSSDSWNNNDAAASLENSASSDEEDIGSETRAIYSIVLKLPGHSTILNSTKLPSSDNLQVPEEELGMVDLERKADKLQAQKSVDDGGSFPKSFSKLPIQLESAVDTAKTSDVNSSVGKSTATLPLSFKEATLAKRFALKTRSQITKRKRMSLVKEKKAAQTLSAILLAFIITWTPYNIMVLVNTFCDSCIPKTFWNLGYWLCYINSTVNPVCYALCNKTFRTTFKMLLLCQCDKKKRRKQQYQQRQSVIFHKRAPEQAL", "assay": "Selectivity interaction (Muscarinic M3 receptor assay, human recombinant ) EUB0000877a CHRM3"}, "[4]": {"target": "Death-associated protein kinase 1 (Homo sapiens, UniProt P53355)", "conditions": "at 10 µM"}, "[5]": {"target": "Tyrosine-protein kinase Lyn (Homo sapiens, UniProt P07948)", "assay": "Selectivity interaction (ActivX KiNativ screen (kinase selectivity in THP-1 cell lysates)) EUB0000639a LYN", "format": "subcellular", "conditions": "lysate, at 0.01 µM"}, "[6]": {"target": "Mitogen-activated protein kinase 9 (Homo sapiens, UniProt P45984)", "sequence (P45984 whole entry, looked up)": "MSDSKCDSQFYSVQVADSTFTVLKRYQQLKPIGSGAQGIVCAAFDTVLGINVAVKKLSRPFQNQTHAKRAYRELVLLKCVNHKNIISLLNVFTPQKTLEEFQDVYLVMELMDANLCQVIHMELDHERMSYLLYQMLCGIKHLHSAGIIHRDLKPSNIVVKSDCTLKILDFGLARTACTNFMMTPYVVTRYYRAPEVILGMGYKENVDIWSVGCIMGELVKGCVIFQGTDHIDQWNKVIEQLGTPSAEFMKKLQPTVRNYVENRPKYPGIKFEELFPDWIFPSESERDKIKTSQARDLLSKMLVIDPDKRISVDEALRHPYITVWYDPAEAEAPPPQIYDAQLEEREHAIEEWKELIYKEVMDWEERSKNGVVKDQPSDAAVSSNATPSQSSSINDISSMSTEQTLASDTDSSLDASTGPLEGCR", "assay": "Selectivity interaction (SelectScreen profiling (Invitrogen)) EUB0000607a MAPK9", "conditions": "at 2 µM"}, "[7]": {"target": "T1, Interleukin-1 receptor-associated kinase 4 (Homo sapiens) (UniProt Q9NWZ3)", "T1 sequence (whole entry)": "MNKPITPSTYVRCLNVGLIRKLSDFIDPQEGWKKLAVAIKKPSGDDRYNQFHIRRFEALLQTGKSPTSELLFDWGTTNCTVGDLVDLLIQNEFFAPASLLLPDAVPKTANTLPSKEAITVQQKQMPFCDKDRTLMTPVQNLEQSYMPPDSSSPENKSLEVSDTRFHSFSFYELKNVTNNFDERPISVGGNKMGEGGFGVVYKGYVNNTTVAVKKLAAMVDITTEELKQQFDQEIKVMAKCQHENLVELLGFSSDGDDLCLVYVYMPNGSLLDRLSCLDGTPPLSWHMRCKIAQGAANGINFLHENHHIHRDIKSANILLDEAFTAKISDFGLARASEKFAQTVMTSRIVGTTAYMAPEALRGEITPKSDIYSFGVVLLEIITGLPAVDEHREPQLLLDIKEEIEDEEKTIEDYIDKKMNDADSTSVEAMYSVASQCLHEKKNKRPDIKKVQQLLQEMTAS", "assay": "Selectivity interaction (SelectScreen profiling (Invitrogen)) EUB0000607a IRAK4", "conditions": "at 2 µM"}, "[8]": {"target": "T2, cGMP-dependent protein kinase 1 (Homo sapiens) (UniProt Q13976)", "T2 sequence (whole entry)": "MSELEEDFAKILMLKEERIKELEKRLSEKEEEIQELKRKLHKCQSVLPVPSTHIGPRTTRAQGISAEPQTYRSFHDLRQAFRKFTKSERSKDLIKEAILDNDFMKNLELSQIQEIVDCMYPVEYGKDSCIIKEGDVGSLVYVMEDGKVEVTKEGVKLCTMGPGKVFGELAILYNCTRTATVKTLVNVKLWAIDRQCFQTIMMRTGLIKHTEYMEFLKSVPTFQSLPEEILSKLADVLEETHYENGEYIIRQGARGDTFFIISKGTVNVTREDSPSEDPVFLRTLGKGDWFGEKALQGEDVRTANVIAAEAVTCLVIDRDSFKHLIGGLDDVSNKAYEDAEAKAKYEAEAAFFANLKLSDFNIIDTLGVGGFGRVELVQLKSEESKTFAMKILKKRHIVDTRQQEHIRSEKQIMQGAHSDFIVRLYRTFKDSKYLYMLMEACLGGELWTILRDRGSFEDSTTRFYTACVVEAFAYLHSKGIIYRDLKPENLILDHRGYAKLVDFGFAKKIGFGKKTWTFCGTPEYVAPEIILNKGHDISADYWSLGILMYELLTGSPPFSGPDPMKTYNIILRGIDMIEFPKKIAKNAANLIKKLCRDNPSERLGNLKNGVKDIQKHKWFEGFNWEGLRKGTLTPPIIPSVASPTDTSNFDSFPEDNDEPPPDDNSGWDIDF", "assay": "Selectivity interaction (KinomeScan (DiscoverX)) EUB0000607a PRKG1", "conditions": "at 10 µM"}, "[9]": {"tested_on": "Receptor-type tyrosine-protein kinase FLT3 (Homo sapiens), P36888 [UNDEFINED MUTATION]", "assay": "Selectivity interaction (KinomeScan (DiscoverX)) EUB0001049a FLT3", "conditions": "at 1 µM"}, "[10]": {"target": "T3, Serine/threonine-protein kinase Nek9 (Homo sapiens) (UniProt Q8TD19)", "T3 sequence (whole entry)": "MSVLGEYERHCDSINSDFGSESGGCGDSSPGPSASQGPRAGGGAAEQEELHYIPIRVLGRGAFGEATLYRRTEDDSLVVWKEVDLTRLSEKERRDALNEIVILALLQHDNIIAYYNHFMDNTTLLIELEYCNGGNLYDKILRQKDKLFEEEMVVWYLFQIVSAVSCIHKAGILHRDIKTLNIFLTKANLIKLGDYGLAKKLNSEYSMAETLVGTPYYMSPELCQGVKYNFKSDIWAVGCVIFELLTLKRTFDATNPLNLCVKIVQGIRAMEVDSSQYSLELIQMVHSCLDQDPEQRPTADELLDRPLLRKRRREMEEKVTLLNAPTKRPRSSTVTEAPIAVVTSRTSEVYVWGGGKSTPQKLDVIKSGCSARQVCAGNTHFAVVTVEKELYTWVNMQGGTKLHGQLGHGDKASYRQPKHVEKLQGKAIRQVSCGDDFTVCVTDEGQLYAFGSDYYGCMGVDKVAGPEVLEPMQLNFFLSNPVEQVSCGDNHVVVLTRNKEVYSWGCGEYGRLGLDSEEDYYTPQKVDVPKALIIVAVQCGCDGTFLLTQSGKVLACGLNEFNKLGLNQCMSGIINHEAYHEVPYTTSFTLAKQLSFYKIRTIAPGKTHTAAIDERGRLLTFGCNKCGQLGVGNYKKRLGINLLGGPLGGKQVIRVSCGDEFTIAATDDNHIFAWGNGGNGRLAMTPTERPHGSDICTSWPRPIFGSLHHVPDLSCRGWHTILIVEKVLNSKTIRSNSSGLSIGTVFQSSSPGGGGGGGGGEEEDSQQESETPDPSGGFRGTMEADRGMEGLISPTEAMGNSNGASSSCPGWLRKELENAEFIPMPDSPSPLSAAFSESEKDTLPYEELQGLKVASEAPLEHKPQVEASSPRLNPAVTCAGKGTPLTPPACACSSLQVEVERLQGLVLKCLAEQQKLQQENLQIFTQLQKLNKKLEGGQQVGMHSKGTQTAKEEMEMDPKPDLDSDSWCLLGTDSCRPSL", "assay": "Selectivity interaction (KinomeScan (DiscoverX)) EUB0000695a NEK9", "conditions": "at 100 nM"}, "[11]": {"target": "Ribosomal protein S6 kinase alpha-5 (Homo sapiens) (UniProt O75582)", "assay": "Selectivity interaction (KinomeScan (DiscoverX)) EUB0000695a RPS6KA5", "conditions": "at 100 nM"}, "[12]": {"target": "Serine/threonine-protein kinase WNK1 (Homo sapiens) (UniProt Q9H4A3)", "sequence (Q9H4A3 whole entry, looked up)": "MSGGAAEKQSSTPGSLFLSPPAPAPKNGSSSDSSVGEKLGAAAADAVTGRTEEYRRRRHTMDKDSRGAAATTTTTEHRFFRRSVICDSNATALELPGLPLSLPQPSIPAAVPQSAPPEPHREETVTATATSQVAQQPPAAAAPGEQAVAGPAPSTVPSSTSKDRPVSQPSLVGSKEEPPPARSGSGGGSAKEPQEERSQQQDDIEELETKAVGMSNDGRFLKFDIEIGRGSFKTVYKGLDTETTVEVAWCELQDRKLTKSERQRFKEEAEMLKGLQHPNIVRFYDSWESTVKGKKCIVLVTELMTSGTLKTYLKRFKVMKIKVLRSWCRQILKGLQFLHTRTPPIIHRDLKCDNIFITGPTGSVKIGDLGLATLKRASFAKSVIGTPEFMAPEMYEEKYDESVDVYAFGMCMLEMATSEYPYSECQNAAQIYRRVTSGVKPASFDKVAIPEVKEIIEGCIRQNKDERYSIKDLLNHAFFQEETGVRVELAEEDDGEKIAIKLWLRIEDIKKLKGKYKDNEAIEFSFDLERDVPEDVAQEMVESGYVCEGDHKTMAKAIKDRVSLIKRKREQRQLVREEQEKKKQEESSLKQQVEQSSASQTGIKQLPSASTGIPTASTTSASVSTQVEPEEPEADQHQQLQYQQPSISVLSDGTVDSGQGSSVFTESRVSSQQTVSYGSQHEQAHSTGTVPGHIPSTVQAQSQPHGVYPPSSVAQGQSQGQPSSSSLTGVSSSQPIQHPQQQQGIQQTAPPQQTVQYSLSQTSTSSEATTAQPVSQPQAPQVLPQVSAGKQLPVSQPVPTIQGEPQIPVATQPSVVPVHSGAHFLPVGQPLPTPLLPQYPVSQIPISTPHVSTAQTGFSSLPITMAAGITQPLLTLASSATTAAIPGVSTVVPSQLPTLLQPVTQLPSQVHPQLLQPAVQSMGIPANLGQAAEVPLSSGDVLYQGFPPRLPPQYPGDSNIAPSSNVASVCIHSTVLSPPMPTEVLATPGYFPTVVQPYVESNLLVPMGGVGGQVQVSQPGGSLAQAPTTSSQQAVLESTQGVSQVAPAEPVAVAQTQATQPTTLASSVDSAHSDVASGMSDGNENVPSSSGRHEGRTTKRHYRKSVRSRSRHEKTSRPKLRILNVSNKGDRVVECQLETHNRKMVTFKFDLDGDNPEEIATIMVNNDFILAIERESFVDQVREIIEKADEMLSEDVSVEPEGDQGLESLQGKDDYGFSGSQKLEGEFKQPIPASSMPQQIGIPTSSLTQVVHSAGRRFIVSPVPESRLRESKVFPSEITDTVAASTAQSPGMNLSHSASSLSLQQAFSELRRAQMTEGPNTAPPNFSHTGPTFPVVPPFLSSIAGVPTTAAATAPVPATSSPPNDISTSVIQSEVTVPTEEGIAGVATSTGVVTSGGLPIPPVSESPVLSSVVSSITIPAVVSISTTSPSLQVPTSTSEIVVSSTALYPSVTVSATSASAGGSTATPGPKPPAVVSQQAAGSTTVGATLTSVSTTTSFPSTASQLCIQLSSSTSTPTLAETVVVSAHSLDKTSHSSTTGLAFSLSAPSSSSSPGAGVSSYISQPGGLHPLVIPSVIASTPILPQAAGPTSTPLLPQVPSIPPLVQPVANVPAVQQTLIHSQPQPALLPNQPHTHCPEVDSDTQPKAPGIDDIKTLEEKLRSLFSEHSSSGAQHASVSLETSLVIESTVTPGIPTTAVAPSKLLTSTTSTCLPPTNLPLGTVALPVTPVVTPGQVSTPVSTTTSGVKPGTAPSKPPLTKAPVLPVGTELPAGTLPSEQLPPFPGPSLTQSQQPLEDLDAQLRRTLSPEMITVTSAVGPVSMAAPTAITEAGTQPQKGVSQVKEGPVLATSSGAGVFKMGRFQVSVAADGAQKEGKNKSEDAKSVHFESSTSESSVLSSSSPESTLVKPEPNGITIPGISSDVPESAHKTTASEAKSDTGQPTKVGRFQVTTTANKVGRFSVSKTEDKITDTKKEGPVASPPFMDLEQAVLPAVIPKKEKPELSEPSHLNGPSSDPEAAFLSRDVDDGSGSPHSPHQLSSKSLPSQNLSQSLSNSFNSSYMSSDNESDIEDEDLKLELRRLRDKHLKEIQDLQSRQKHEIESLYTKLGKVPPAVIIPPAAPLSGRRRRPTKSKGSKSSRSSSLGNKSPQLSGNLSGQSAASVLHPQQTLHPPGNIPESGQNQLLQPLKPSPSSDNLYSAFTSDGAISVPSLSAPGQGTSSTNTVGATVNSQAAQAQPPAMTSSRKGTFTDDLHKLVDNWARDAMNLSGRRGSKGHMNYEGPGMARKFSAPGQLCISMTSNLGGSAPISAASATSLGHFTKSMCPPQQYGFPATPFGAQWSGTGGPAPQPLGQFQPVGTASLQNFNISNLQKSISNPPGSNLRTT", "assay": "Selectivity interaction (ActivX KiNativ screen (ex vivo kinase selectivity in human PBMCs)) EUB0001619a WNK1", "format": "cell-based", "conditions": "PBMC, at 1 µM"}, "[13]": {"target": "T1, Interleukin-1 receptor-associated kinase 4 (Homo sapiens)", "assay": "Selectivity interaction (KinomeScan (DiscoverX)) EUB0001619a IRAK4", "conditions": "at 1 µM"}}, "data": [{"smiles": "Cc1ccc(-c2ccc3c(ccc4sc5c(c43)NC[C@@H](C)NC5=O)n2)cn1", "values": [{"measurement": "% of inhibition", "setting": "[1]", "value": -5, "unit": "%"}]}, {"smiles": "Nc1cnc(N2CCc3cc(S(=O)(=O)Nc4c(F)cc(Cl)cc4F)cc(N4CCCC4=O)c32)nc1", "note": "[TP-020n]", "values": [{"measurement": "% of control", "setting": "[2]", "value": 100, "unit": "%"}]}, {"smiles": "CCC(=O)N1CC[C@H](Nc2ncnc3c2CN(c2cnc(OC)c(C(F)(F)F)c2)CC3)C1", "note": "[LENIOLISIB]", "values": [{"measurement": "IC50", "setting": "[3]", "value": "> 30", "unit": "µM"}]}, {"smiles": "Cc1cc([C@@H](C)Nc2ccccc2C(=O)O)c2nc(N3CCOCC3)cc(=O)n2c1", "note": "[AZD-6482]", "values": [{"measurement": "% of control", "setting": "[4]", "value": 95, "unit": "%"}]}, {"smiles": "CC[C@@H]1[C@H](F)C(=O)N[C@@H]1COc1nccc2cc(C(N)=O)c(OC)cc12", "note": "[ZIMLOVISERTIB]", "values": [{"measurement": "% of inhibition", "setting": "[5]", "value": 5.3, "unit": "%"}]}, {"smiles": "CNC(=O)Nc1ccc(-c2nc(N3CC4CCC(C3)O4)c3cnn(C4CCC5(CC4)OCCO5)c3n2)cc1", "values": [{"measurement": "% of inhibition", "setting": "[6]", "value": 11, "unit": "%"}, {"measurement": "% of inhibition", "setting": "[7]", "value": 3, "unit": "%"}, {"measurement": "% of control", "setting": "[8]", "value": 100, "unit": "%"}]}, {"smiles": "COc1cc(Nc2nc(C)cc(-c3cnn4nc(OC)ccc34)n2)cc(C(F)(F)F)c1", "values": [{"measurement": "% of control", "setting": "[9]", "value": 73, "unit": "%"}]}, {"smiles": "Cc1cc(F)c(C(=O)Nc2cccc(-c3nncn3C(C)C)n2)cc1-n1cnc(C2CC2)c1", "values": [{"measurement": "% of control", "setting": "[10]", "value": 100, "unit": "%"}, {"measurement": "% of control", "setting": "[11]", "value": 100, "unit": "%"}]}, {"smiles": "N#Cc1cccc(-c2c[nH]c3ncnc(N4CCOCC4)c23)c1", "values": [{"measurement": "% of inhibition", "setting": "[12]", "value": -6, "unit": "%"}, {"measurement": "% of control", "setting": "[13]", "value": 69, "unit": "%"}]}]}
